Experimental data as given in patent publication US11318143B2, “Treatment of alcohol use disorder” (priority 2017, dated 2022).

Tests used:
[1] = test system: nicotinic acetylcholine receptors (nAChRs); details: systemic administration or site-directed injections in the VTA (Blomqvist et al., 1996; Ericson et al., 1998); cited from earlier work
[2] = test system: dopamine levels in the rat nucleus accumbens; assay: in vivo microdialysis in the nucleus accumbens in awake freely moving rats; design: species or system Wistar rats; details: for extracellular dopamine levels in the dialysate (percent of baseline): FIG. 1, varenicline 1.5 mg/kg, bupropion 2.5 mg/kg i.p., sampling 140 minutes, preliminary data; for extracellular DA levels / DA release in the rat nAc: FIGS. 1 to 5, overall statement
Method: Shown are dopamine levels measured in the dialysate expressed as percent of baseline. Drugs (mg/kg) or control solution (NaCl) was injected i.p. directly after time-point 0.
FIGS. 2 and 3 show results from in vivo microdialysis in the nucleus accumbens in awake freely moving male Wistar rats after injection of varenicline (1.5 mg/kg, i.p.) or bupropion (2.5, 5 and 10 mg/kg i.p.) Dopamine levels in the dialysate are expressed as percent of baseline. Drugs or control solution (NaCl) was injected directly after time-point 0.
FIG. 5 illustrates the Area Under the Curve (AUC) 0-140 minutes (Bup 5 vs Var+Bup 5: p<0.001.
A). Experiments that examine the effects of varenicline and bupropion (separately and in combination) on dopamine release in the nucleus accumbens (nAc; a central part of the brain reward system) using in vivo microdialysis in awake, freely moving rats have commenced. […] Rats were surgically implanted with a microdialysis probe into nAc, which two days later was coupled to a perfusion pump allowing liquid sampling from the extracellular space. After a stable baseline was obtained varenicline (1.5 mg/kg, […].), bupropion (2.5 mg/kg, i.p.) or control solution was administered and sampling continued for 140 minutes. […] Further, as long as bupropion produces an effect, this effect adds to the varenicline effect when the two drugs are given in combination.

[3] = test system: subjects with alcohol use disorder; details: treatment of AUD, literature, cited from earlier work; for effect size (Cohen's D): meta-analyses
[4] = test system: alcohol dependent individuals; details: cited from earlier work
[5] = test system: ethanol-induced stimulation and euphoria; details: McKee et al. (2009); cited from earlier work
[6] = test system: relapses to drinking; details: chronic i.m. administration (Wiesbeck et al., 2001); cited from earlier work

| Compound | extracellular dopamine levels in the dialysate (percent of baseline) [2] | extracellular DA levels / DA release in the rat nAc [2] | Numbers-needed-to-treat (NNT) [3] | effect size (Cohen's D) [3] | further results |
| --- | --- | --- | --- | --- | --- |
| CNC1(C)C2CCC(C2)C1(C)C (stereo not shown) [mecamylamine] | – | – | – | – | ethanol intake and preference [1]: reduces |
| CC(NC(C)(C)C)C(=O)c1cccc(Cl)c1 (stereo not shown) [bupropion] | raise extracellular dopamine levels | increase extracellular DA levels | – | – | – |
| CC(=O)NCCCS(=O)(=O)O [Acamprosate] | – | – | 7.5 | 0.32 | – |
| c1cnc2cc3c(cc2n1)[C@@H]1CNC[C@H]3C1 [varenicline] | raise extracellular dopamine levels | increase extracellular DA levels | – | – | effect ([4]; females (O'Malley et al., 2017)): no effect; effect size ([4]; male alcoholics (O'Malley et al., 2017)): 0.45; ethanol-induced stimulation and euphoria [5]: blocked |
| O=C1CC[C@@]2(O)[C@H]3Cc4ccc(O)c5c4[C@@]2(CCN3CC2CC2)[C@H]1O5 [Naltrexone] | – | – | 8.6 | 0.2 | – |
| OCCN1CCN(CC/C=C2\c3ccccc3Sc3ccc(C(F)(F)F)cc32)CC1 [fluphentixole] | – | – | – | – | relapses to drinking as compared to placebo [6]: worsened the condition |
